Reference: patent US20160279079A1, “COMPOSITIONS AND METHODS FOR TREATING BONE DISEASES” (INDIANA UNIVERSITY RESEARCH AND TECHNOLOGY CORPORATION, priority 2013, published 2016)
Like-named read-outs stand apart in the source and are kept apart here.

Columns and labels:
[1] = system: RAW264.7 mouse pre-osteoclast (monocyte/macrophage) cells; assay: Cell mortality and live cell numbers (trypan blue, hemacytometer); type: cell-based
Method: METHOD EXAMPLE. Cell culture. MC3T3 E1 mouse osteoblast-like cells (clone 14—MC3T3 E1-14; and no clonal cells in supplementary figures), and RAW264.7 mouse pre-osteoclast (monocyte/macrophage) cells were cultured in αMEM containing 10% fetal bovine serum and antibiotics (50 units/ml penicillin, and 50 μg/ml streptomycin; Life Technologies, Grand Island, N.Y., USA). Cells were maintained at 37° C. and 5% CO2 in a humidified incubator. Cell mortality and live cell numbers were determined 24 h after the treatment with 20 ng/ml RANKL (PeproTech, Rocky Hills, N.C., USA) in response to 0.1-20 μM salubrinal or 1-20 μM guanabenz acetate (Tocris Bioscience, Ellisville, Mo., USA). Cells were stained with trypan blue and the numbers of live and dead cells were counted using a hemacytometer.
METHOD EXAMPLE. Inhibition of osteoclastogenesis of RAW264.7 cells by salubrinal. The primary aim of this study is to evaluate the effects of salubrinal on osteoclastogenesis. In response to 0.1-20 μM salubrinal for 24 h, cell mortality and live cell numbers of RAW264.7 pre-osteoclasts was examined. […] The number of live cells was increased by ˜50% by incubation with RANKL, and administration of 10-20 μM salubrinal reduced the numbers approximately by 10% (FIG. 3B).
METHOD EXAMPLE. Inhibitory effects of guanabenz on osteoclastogenesis of RAW264.7 cells. To further examine a potential involvement of p-eIF2α in regulation of osteoclastogenesis, we employed guanabenz that also acts as an inhibitor of de-phosphorylation of eIF2α was evaluated. […] Compared to the number of TRAP-positive multi-nucleated cells of 377 39 (RANKL only), guanabenz reduced the number of differentiated osteoclasts to 364±38 (1 μM), 288±51 (5 μM), 189±25 (10 μM), and 73±16 (20 μM).

p-eIF2α [2] = assay: Western immunoblotting, p-eIF2α in RAW264.7 cells; type: cell-based, mouse; details: with RANKL
From the text: (§1) METHOD EXAMPLE. Reduction of RANKL-induced NFATcl, c-Fos, TRAP, and OSCAR by guanabenz. […] The normalized level of “1” was defined as the level for the cells that were not treated with RANKL without administration of guanabenz.
(§2) METHOD EXAMPLE. Western Immunoblotting. Cells were lysed in a radioimmunoprecipitation assay (RIPA) buffer containing protease inhibitors (Santa Cruz Biotechnology, Santa Cruz, Calif., USA) and phosphatase inhibitors (Calbiochem, Billerica, Mass., USA). Isolated proteins were fractionated using 10-15% SDS gels and electro-transferred to Immobilon-P membranes (Millipore, Billerica, Mass., USA). The membrane was incubated for 1 h with primary antibodies followed by 45 min incubation with goat anti-rabbit or anti-mouse IgG conjugated with horseradish peroxidase (Cell Signaling, Danvers, Mass., USA). We used antibodies against ATF4, NFATcl (Santa Cruz), p-eIF2α (Thermo Scientific, Waltham, Mass., USA), eIF2α, caspase 3, cleaved caspase 3, p38 and p-p38 mitogen activated protein kinase (MAPK), extracellular signal-regulated kinase (ERK) and p-ERK, nuclear factor kappa B (NFκB) p65 and p-NFκB p65 (Cell Signaling), and β-actin (Sigma). Protein levels were assayed using a SuperSignal west femto maximum sensitivity substrate (Thermo Scientific), and signal intensities were quantified with a luminescent image analyzer (LAS-3000, Fuji Film, Tokyo, Japan).
METHOD EXAMPLE. […]

ATF4 = assay: Western immunoblotting, ATF4 in MC3T3 E1-14 cells; type: cell-based, mouse
Method: as §2
(§3) METHOD EXAMPLE. ATF4-mediated elevation of osteocalcin mRNA in MC3T3 E1-14 cells. Salubrinal is an inhibitor of de-phosphorylation of eIF2α. […]

p-eIF2α [3] = assay: Western immunoblotting, p-eIF2α in MC3T3 E1-14 cells; type: cell-based, mouse
Method: as §2, §3

NFATc1 [4] = assay: Quantitative real-time PCR, NFATc1 mRNA in RAW264.7 cells; type: cell-based, mouse
Method: METHOD EXAMPLE. Quantitative real-time PCR. Total RNA was extracted using an RNeasy Plus mini kit (Qiagen, Germantown, Md., USA). Reverse transcription was conducted with high capacity cDNA reverse transcription kits (Applied Biosystems, Carlsbad, Calif., USA), and quantitative real-time PCR was performed using ABI 7500 with Power SYBR green PCR master mix kits (Applied Biosystems). We evaluated mRNA levels of ATF4, Osteocalcin (OCN), NFATcl, c-Fos, tartrate-resistant acid phosphatase (TRAP), and osteoclast-associated receptor (OSCAR) with the PCR primers listed in Table 1. GAPDH was used for internal control. The relative mRNA abundance for the selected genes with respect to the level of GAPDH mRNA was expressed as a ratio of Streated/Scontrol, where Streated=mRNA level for the cells treated with chemical agents, and Scontrol=mRNA level for control cells.
METHOD EXAMPLE. Partial suppression of mRNA levels of NFATcl, c-Fos, TRAP, and OSCAR by salubrinal. […] On day 2, for instance, the RANKL-driven increase was 9.4±0.5 fold (NFATcl), 1.9±0.1 fold (c-fos), 165±4.2 fold (TRAP), and 467±22 fold (OSCAR). The reduction by 20 μM salubrinal was 46% (NFATcl), 32% (c-fos), 35% (TRAP), and 21% (OSCAR) (FIG. 5A).
as §1

NFATc1 [5] = assay: Western immunoblotting, NFATc1 expression in RAW264.7 cells; type: cell-based, mouse; details: for expression of NFATc1: absence of RANKL administration
Method: METHOD EXAMPLE. Downregulation of NFATcl in RAW264.7 cells by salubrinal. NFATcl is a transcription factor critical for activating osteoclastogenesis. […] The RANKL-induced expression of NFATcl was reduced by administration of 5-20 μM salubrinal on both days, and the effect of salubrinal was dose dependent (FIG. 4).
as §1, §2
METHOD EXAMPLE. Temporal profile of p-eIF2α and NFATcl. […] Note that the normalized level of “1” in FIG. 6C was defined as the level for the cells that were not treated with RANKL without administration of guanabenz.

Structure (SMILES) | Cell mortality ratio ([1]; 0.1-20 μM salubrinal, 24 h, presence and absence of RANKL) | reduction of the number of live cells ([1]; 10-20 μM salubrinal, 24 h, with RANKL) | cell mortality ([1]; absence of RANKL administration) | level of p-eIF2α (p-eIF2α [2]; 20 μM salubrinal, early period (2-4 h)) | ATF4 expression (ATF4; 5 μM salubrinal) | phosphorylation of eIF2α (p-eIF2α [3]; 5 μM salubrinal) | reduction of NFATc1 mRNA level (NFATc1 [4]; 20 μM salubrinal, day 2 after RANKL) | NFATc1 mRNA level (NFATc1 [4]; 0.1-1 μM salubrinal, with RANKL, except on day 4) | reduction of the level of NFATc1 (NFATc1 [5]; 20 μM salubrinal, 8 h, with RANKL) | reduction of the level of NFATc1 (NFATc1 [5]; 20 μM salubrinal, 24 h, with RANKL) | level of NFATc1 (NFATc1 [5]; 20 μM salubrinal, early period (2-4 h), with RANKL) | RANKL-induced expression of NFATc1 (NFATc1 [5]; 5-20 μM salubrinal, day 2 and day 4, dose dependent) | expression of NFATc1 (NFATc1 [5]) | cell mortality [1] | temporal expression profile of p-eIF2α (p-eIF2α [2]; 20 μM guanabenz) | ATF4 (ATF4; guanabenz) | p-eIF2α (p-eIF2α [3]; guanabenz) | NFATc1 mRNA level (NFATc1 [4]; 20 μM guanabenz, 2 days after RANKL) | temporal expression profile of NFATc1 (NFATc1 [5]; 20 μM guanabenz, with RANKL) | induction of NFATc1 by RANKL (NFATc1 [5]; guanabenz dose response, 2 days after RANKL)
O=C(/C=C/c1ccccc1)NC(NC(=S)Nc1cccc2cccnc12)C(Cl)(Cl)Cl (stereo not drawn) [salubrinal] | did not present statistically significant differences | ~10% | did not significantly alter | increased the level of p-eIF2α | increase in ATF4 expression | elevated phosphorylation of eIF2α | 46% | did not contribute to significant reduction | 48% | 44% | did not alter | reduced | did not significantly alter |  |  |  |  |  |  | 
N=C(N)N/N=C/c1c(Cl)cccc1Cl [guanabenz] |  |  |  |  |  |  |  |  |  |  |  |  | did not significantly alter | did not significantly alter | upregulatcd in 2 h | increase in p-eIF2α and ATF4 | increase in p-eIF2α and ATF4 | reduced | partially suppressed in 8 h | suppressed by guanabenz in a dose dependent manner
